How the values were obtained:
mice [1] = test: Intraocular pressure (IOP) in mice by rebound tonometry (Tonolab); type: in vivo
Description: IOP was measured in mice by rebound tonometry, using a Tonolab (Icare Finland Oy, Helsinki, Finland). This instrument uses a light plastic-tipped probe to briefly make contact with the cornea; after the probe encounters the eye the instrument measures the speed at which the probe rebounds in order to calculate IOP.
(§1) To obtain reproducible IOP measurements, mice were anesthetized with isoflurane (3% induction). The anesthetized mouse was then placed on a platform in a prone position, where anesthesia was maintained with 2% isoflurane. Baseline fop measurements are taken in both eyes. A ‘measurement’ included the average value of six readings. One eye was then treated with drug (dissolved in Tocrisolve (Tocris Biosciences), a soya-based solvent, 5 μL final volume, applied topically) while the other eye was treated with vehicle. The animal was then allowed to recover. After an hour the animal was again anesthetized as above. IOP was then measured in the drug-treated and vehicle-treated contralateral eye.
IOP measurements following drug administration were analyzed by paired t-tests comparing drug-treated eyes to contralateral vehicle-treated eyes. Where animals were injected with drug, ocular pressures of animals were compared with those of vehicle-injected animals and compared using an unpaired t-test.

mice [2] = test: as above; type: in vivo; remark: listed apart in the source
[3] = Observation of signs of irritation after 7 days of daily topical treatment; type: in vivo, mice; conditions: after the 7 days of daily treatment, SR141716 1 mM topical
Description: as §1
The outcome of repeated daily treatment with SR1 was tested separately. […] The IOP was also lower in the vehicle treated eye but this difference was not statistically significant.

Structure (SMILES): O=C(Nc1ccc(Cl)cc1)Nc1cccc(-c2cccc(N3CCCC3)n2)c1 [PSNCBAM1, 1-(4-chlorophenyl)-3-(3-(6-(pyrrolidin-1-yl)pyridin-2-yl)phenyl)urea]
- IOP (mm Hg±SEM) 1 hour after intraperitoneal injection (mice [1]; PSNCBAM1 4 mg/kg IP, 1 hour, n=16, baseline IOP 19.6±0.4, p<0.005, FIG. 3B): 17.3±0.5 mm Hg
- IOP (mm Hg±SEM) in drug-treated eye after topical treatment (mice [1]; PSNCBAM1 5 mM topical, WT mice, n=8, not significant vs vehicle-treated eye 17.4±0.7, FIG. 3A): 18.0±0.6 mm Hg
- Effect of intraperitoneal injection on ocular pressure (mice [1]; intraperitoneal injection, FIG. 3B): lowered ocular pressure
- Effect of topical treatment on ocular pressure relative to the contralateral eye (mice [1]; topical, WT mice, FIG. 3A): did not lower ocular pressure

Structure (SMILES): Cc1c(C(=O)NN2CCCCC2)nn(-c2ccc(Cl)cc2Cl)c1-c1ccc(Cl)cc1 [SR141716, 5-(4-Chlorophenyl)-1-(2,4-dichloro-phenyl)-4-methyl-N-(piperidin-1-yl)-1H-pyrazole-3-carboxamide]
- Δ IOP±SEM, drug-treated eye before 7th treatment (24 hours after 6th daily treatment) (mice [2]; SR141716 1 mM topical daily, 7 days, drug-treated eye, n=8, p<0.05, FIG. 4B): −2.9±1.0 mm Hg
- Δ IOP±SEM, effect at 24 hrs after a single treatment (mice [2]; SR141716 1 mM topical, single treatment, 24 hrs, n=16, FIG. 4A): −0.3±0.3 mm Hg
- Δ IOP±SEM, effect at 48 hrs after a single treatment (mice [2]; SR141716 1 mM topical, single treatment, 48 hrs, n=16, p<0.005, FIG. 4A): +2.0±0.6 mm Hg
- Δ IOP±SEM, effect in drug-treated eye after seven days of daily treatment (mice [1]; SR141716 1 mM topical, 7th day of daily treatment, n=8, p<0.005, FIG. 4C): −4.6±0.9 mm Hg
- Δ IOP±SEM, effect at 1 day in drug-treated eye (mice [1]; SR141716 1 mM topical, day 1 of daily treatment, n=8, FIG. 4C): −2.8±0.6 mm Hg
- Effect on intraocular pressure at midday, standard light cycle (mice [1]; SR141716 1 mM, midday, mice in standard light cycle, FIG. 1B): raised intraocular pressure
- Effect on intraocular pressure at midnight, reverse light cycle (mice [1]; SR141716 1 mM, midnight, mice in reverse light cycle): reduced intraocular pressure
- Effect of daily treatments on ocular pressure (mice [1]; daily treatments over 7 days, FIG. 2C): sustained lower ocular pressure
- Signs of irritation [3]: No signs of irritation were observed
